What was measured:
[1] = Oral bioavailability in 18 hrs fasted normal Sprague-Dawley rat up to 100 mg/kg by urinary excretion assay; format: ADME, organism-based; settings: urine
[2] = biological target: T1, Fructose-1,6-bisphosphatase 1 (Homo sapiens, UniProt P09467); experiment: Inhibition of human liver FBPase 1
T1 sequence (P09467 whole entry): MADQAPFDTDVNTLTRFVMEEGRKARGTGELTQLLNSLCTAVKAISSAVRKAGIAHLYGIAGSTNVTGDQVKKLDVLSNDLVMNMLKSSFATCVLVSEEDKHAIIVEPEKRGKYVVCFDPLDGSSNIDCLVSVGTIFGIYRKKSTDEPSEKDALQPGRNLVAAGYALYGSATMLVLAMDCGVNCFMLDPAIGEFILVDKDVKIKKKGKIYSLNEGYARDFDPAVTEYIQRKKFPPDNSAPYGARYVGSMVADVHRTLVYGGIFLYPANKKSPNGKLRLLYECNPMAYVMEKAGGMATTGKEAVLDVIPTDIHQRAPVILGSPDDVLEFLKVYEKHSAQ

[3] = biological target: T2, Fructose-1,6-bisphosphatase 1 (Rattus norvegicus, UniProt P19112); experiment: Inhibition of rat liver FBPase 1
T2 sequence (P19112 whole entry): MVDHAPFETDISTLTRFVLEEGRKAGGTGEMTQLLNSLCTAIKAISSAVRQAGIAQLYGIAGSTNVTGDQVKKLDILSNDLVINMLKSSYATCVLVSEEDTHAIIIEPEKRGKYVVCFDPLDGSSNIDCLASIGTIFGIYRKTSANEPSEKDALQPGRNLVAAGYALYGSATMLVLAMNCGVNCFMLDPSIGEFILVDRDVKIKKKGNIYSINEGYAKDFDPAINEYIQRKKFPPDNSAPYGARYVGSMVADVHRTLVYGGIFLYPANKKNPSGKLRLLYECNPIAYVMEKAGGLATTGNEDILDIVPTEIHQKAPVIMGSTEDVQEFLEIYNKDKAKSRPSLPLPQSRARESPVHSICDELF

Hepatocyte = experiment: cells; settings: Rattus norvegicus
Rattus norvegicus = experiment: Reduction of blood glucose level in 18 hrs fasted normal Sprague-Dawley rat at 10 mg/kg, iv after 1 hr interval; format: functional; set-up: scale not given: the % may be the effect or the level left

SMILES | IC50 [2] [nM] | IC50 [3] [nM] | bioavailability [1] [%] | IC50 (Hepatocyte) [nM] | Activity (Rattus norvegicus) [%]
CCc1cc(F)c(N)c2nc(-c3ccc(P(=O)(OCCSC(C)=O)OCCSC(C)=O)o3)n(CC(C)C)c12 | – | – | 2 | – | –
Nc1cccc2c1nc(-c1ccc(P(=O)(O)O)o1)n2Cc1ccsc1 | 4000 | 20000 | – | 100000 | –
CC(C)(C)c1ccc(Cn2c(-c3ccc(P(=O)(O)O)o3)nc3c(N)cccc32)cc1 | 9500 | 20000 | – | 100000 | –
Nc1cccc2c1nc(-c1ccc(P(=O)(O)O)o1)n2Cc1ccc(-c2ccccc2)cc1 | 2500 | 20000 | – | 100000 | –
Nc1cccc2c1nc(-c1ccc(P(=O)(O)O)o1)n2CC1CCCC1 | 1500 | 2000 | – | 45000 | –
CCC(CC)n1c(-c2ccc(P(=O)(O)O)o2)nc2c(N)c(F)ccc21 | 850 | 2500 | – | 9500 | –
Nc1cccc2c1nc(-c1ccc(P(=O)(O)O)o1)n2CC1CC1 | 800 | 20000 | – | 100000 | –
CCc1ccc2c(nc(-c3ccc(P(=O)(O)O)o3)n2CC(C)C)c1N | 2500 | 20000 | – | 50000 | –
CCn1c(-c2ccc(P(=O)(O)O)o2)nc2c(N)cccc21 | 2250 | 40000 | – | – | –
CCc1cc(F)c(N)c2nc(-c3ccc(P(=O)(Oc4ccc(C(=O)OC(C)(C)C)cc4)Oc4ccc(C(=O)OC(C)(C)C)cc4)o3)n(CC(C)C)c12 | – | – | 2 | – | –
Nc1cccc2c1nc(-c1ccc(P(=O)(O)O)o1)n2CC1CCC1 | 800 | 2000 | – | 40000 | –
Nc1cccc2c1nc(-c1ccc(P(=O)(O)O)o1)n2Cc1ccoc1 | 4200 | 20000 | – | 100000 | –
Nc1cccc2c1nc(-c1ccc(P(=O)(O)O)o1)n2CC12CCC(CC1)C2 | 1000 | 2000 | – | 25000 | –
Cn1c(-c2ccc(P(=O)(O)O)o2)nc2c(N)cccc21 | 6000 | 20000 | – | 100000 | –
Nc1c(F)ccc2c1nc(-c1ccc(P(=O)(O)O)o1)n2CC1CC1 | – | 2180 | – | 3300 | –
CCc1cc(F)c(N)c2nc(-c3ccc(P(=O)(OCC(=O)OC(C)(C)C)OCC(=O)OC(C)(C)C)o3)n(CC(C)C)c12 | – | – | 2 | – | –
Nc1cccc2c1nc(-c1ccc(P(=O)(O)O)o1)n2CC1CCCCC1 | 2500 | 20000 | – | 100000 | –
CCCc1ccc2c(nc(-c3ccc(P(=O)(O)O)o3)n2CC(C)C)c1N | 3000 | 20000 | – | 50000 | –
Nc1cccc2c1nc(-c1ccc(P(=O)(O)O)o1)n2CC1CCCCCC1 | 3250 | 20000 | – | 100000 | –
CCOC(=O)OCOP(=O)(OCOC(=O)OCC)c1ccc(-c2nc3c(N)c(F)cc(CC)c3n2CC(C)C)o1 | – | – | 2 | – | –
CCCn1c(-c2ccc(P(=O)(O)O)o2)nc2c(N)cccc21 | 1100 | 2000 | – | 37000 | –
Nc1cccc2c1nc(-c1ccc(P(=O)(O)O)o1)n2Cc1ccc(C(F)(F)F)cc1 | 7000 | 20000 | – | 100000 | –
CCOC(=O)[C@H](C)NP(=O)(N[C@@H](C)C(=O)OCC)c1ccc(-c2nc3c(N)c(F)cc(CC)c3n2CC(C)C)o1 | – | – | 5 | – | –
Nc1cccc2c1nc(-c1ccc(P(=O)(O)O)o1)n2Cc1cccc(O)c1 | 1850 | 20000 | – | 100000 | –
CCC(CC)Cn1c(-c2ccc(P(=O)(O)O)o2)nc2c(N)c(F)ccc21 | 150 | 850 | – | 5000 | –
Nc1cccc2c1nc(-c1ccc(P(=O)(O)O)o1)n2Cc1ccccc1 | 5000 | 20000 | – | 100000 | –
CCc1cc(F)c(N)c2nc(-c3ccc(P(=O)(OCC(=O)OC(C)(C)C)OCC(=O)OC(C)(C)C)o3)n(CC(C)C)c12.Cl | – | – | 2 | – | –

Now from value to compound, other results behind:

IC50 [2] [nM] | IC50 [3] [nM] | SMILES | bioavailability [1] [%] | IC50 (Hepatocyte) [nM] | Activity (Rattus norvegicus) [%]
700 | 2000 | COc1ccc2c(nc(-c3ccc(P(=O)(O)O)o3)n2CC(C)C)c1N | – | 16000 | –
210 | 1600 | CC(C)Cn1c(-c2ccc(P(=O)(O)O)o2)nc2c(N)c(F)cc(CCC(C)(C)C)c21 | – | 18000 | 28
100 | 650 | CCCc1cc(F)c(N)c2nc(-c3ccc(P(=O)(O)O)o3)n(CC(C)C)c12 | – | 5500 | 60
55 | 400 | CC(C)Cn1c(-c2ccc(P(=O)(O)O)o2)nc2c(N)c(F)cc(CCCN(C)C)c21 | – | – | 44
130 | 2090 | CC(C)Cn1c(-c2ccc(P(=O)(O)O)o2)nc2c(N)c(F)cc(Br)c21 | – | 5000 | –
400 | – | CC(C)Cn1c(-c2ccc(P(=O)(O)O)o2)nc2c(N)c(Br)ccc21 | – | 14000 | –
70 | 500 | CC(C)Cn1c(-c2ccc(P(=O)(O)O)o2)nc2c(N)c(F)cc(CCCCCl)c21 | – | 3100 | 47
450 | 2000 | CC(C)Cn1c(-c2ccc(P(=O)(O)O)o2)nc2c(N)c(Cl)cc(Cl)c21 | – | 14000 | –
280 | 900 | C=Cc1cc(F)c(N)c2nc(-c3ccc(P(=O)(O)O)o3)n(CC(C)C)c12 | – | 25000 | –
225 | 2000 | CC(C)Cn1c(-c2ccc(P(=O)(O)O)o2)nc2c(N)c(F)c(Cl)cc21 | – | 16000 | –
200 | 2000 | CC(C)Cn1c(-c2ccc(P(=O)(O)O)o2)nc2c(N)c(Cl)ccc21 | – | 15000 | –
10000 | – | CC(C)Cn1c(-c2ccc(P(=O)(O)O)o2)nc2c(N)c(Br)c(Cl)c(Cl)c21 | – | – | –
90 | 900 | CC(C)Cn1c(-c2ccc(P(=O)(O)O)o2)nc2c(N)c(F)cc(-c3ccccc3)c21 | – | 18000 | 0
180 | 1300 | CC(C)Cn1c(-c2ccc(P(=O)(O)O)o2)nc2c(N)c(F)cc(-c3ccc(F)cc3)c21 | – | 21000 | 0
1500 | 4000 | CC(C)Cn1c(-c2ccc(P(=O)(O)O)o2)nc2c(N)cccc21 | – | 20000 | –
90 | 2000 | CC(C)Cn1c(-c2ccc(P(=O)(O)O)o2)nc2c(N)c(F)cc(-c3ccc(Cl)cc3)c21 | – | > 25000 | –
900 | 2000 | CC(C)Cn1c(-c2ccc(P(=O)(O)O)o2)nc2c(N)ccc(Cl)c21 | – | 24000 | –
100 | 2000 | CC(C)Cn1c(-c2ccc(P(=O)(O)O)o2)nc2c(N)c(F)cc(Cl)c21 | – | – | –
60 | 350 | CC(C)Cn1c(-c2ccc(P(=O)(O)O)o2)nc2c(N)c(F)cc(C3CC3)c21 | – | 1500 | 64
100 | 2280 | CC(C)Cn1c(-c2ccc(P(=O)(O)O)o2)nc2c(N)c(F)ccc21 | – | 2400 | –
500 | 20000 | CC(C)Cn1c(-c2ccc(P(=O)(O)O)o2)nc2c(N)c(O)ccc21 | – | 25000 | –
80 | 450 | CC(C)Cn1c(-c2ccc(P(=O)(O)O)o2)nc2c(N)c(F)cc(CCCO)c21 | – | 1000 | 63
100 | 2100 | CC(C)CCCc1cc(F)c(N)c2nc(-c3ccc(P(=O)(O)O)o3)n(CC(C)C)c12 | – | 23000 | –
400 | 2000 | CC(C)Cn1c(-c2ccc(P(=O)(O)O)o2)nc2c(N)ccc(Br)c21 | – | 14000 | –
1000 | 2000 | CC(C)Cn1c(-c2ccc(P(=O)(O)O)o2)nc2c(N)c(Br)cc(Br)c21 | – | 14000 | –

— ChEMBL document CHEMBL1156817, “Fructose-1,6-bisphosphatase Inhibitors. 2. Design, synthesis, and structure-activity relationship of a series of phosphonic acid containing benzimidazoles that function as 5'-adenosinemonophosphate (AMP) mimics” (J Med Chem, 2010)
